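Protocol summary: plate cells (96-well), add compound at 5 concentrations, incubate 48 h, interpolate endpoints linearly. TGI is the concentration that stops growth completely.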 Where a SMILES comes first, the peptide text is derived from it. The star is where a group is joined. Cbz = O=C(OCc1ccccc1)*
Columns and labels:
Experiment in all cases: NCI tumour cell line growth inhibition, 48 h
[1] = system: HOP-92 NSCLC
[2] = system: RPMI-8226 leukemia
[3] = system: COLO 205 colon
[4] = system: OVCAR-8 ovarian
[5] = system: MDA-MB-231 breast
[6] = system: IGROV1 ovarian
[7] = system: SN12C renal
[8] = system: T-47D breast
[9] = system: DU-145 prostate
[10] = system: CAKI-1 renal
[11] = system: MDA-MB-435
[12] = system: LOX IMVI melanoma
[13] = system: K-562 leukemia
[14] = system: HCT-116 colon
[15] = system: MOLT-4 leukemia
[16] = system: M14 melanoma
[17] = system: SR leukemia
[18] = system: SK-MEL-5 melanoma
[19] = system: HL-60(TB) leukemia
[20] = system: SF-295 CNS
[21] = system: UACC-62 melanoma
[22] = system: HOP-62 NSCLC
[23] = system: NCI-H522 lung
[24] = system: CCRF-CEM leukemia
[25] = system: MCF7 breast
[26] = system: NCI-H23 lung
[27] = system: NCI-H226 lung
[28] = system: HT29 colon
[29] = system: EKVX NSCLC
[30] = system: 786-0 renal
[31] = system: MALME-3M melanoma
[32] = system: HS 578T breast
[33] = system: OVCAR-5 ovarian
[34] = system: U251 CNS
[35] = system: OVCAR-3 ovarian
[36] = system: MDA-N
[37] = system: PC-3 prostate
[38] = system: SW-620 colon
[39] = system: HCT-15 colon
[40] = system: UO-31 renal
[41] = system: SF-268 CNS
[42] = system: SNB-19 CNS
[43] = system: TK-10 renal
[44] = system: SK-MEL-28 melanoma
[45] = system: HCC-2998 colon
[46] = system: KM12 colon
[47] = system: A549 NSCLC
[48] = system: RXF 393 renal
[49] = system: SK-OV-3 ovarian
[50] = system: NCI-H460 lung
[51] = system: SNB-75 CNS
[52] = system: OVCAR-4 ovarian
[53] = system: NCI/ADR-RES ovarian
[54] = system: ACHN renal
[55] = system: BT-549 breast
[56] = system: UACC-257 melanoma
[57] = system: SF-539 CNS
[58] = system: SK-MEL-2 melanoma

Work on `COC(=O)C(CC(C)C)NC(=O)C(CCCN=C(N)N)NC(=O)OCc1ccccc1` (stereo not drawn) (Cbz-Arg-Leu-OMe; configuration not given here) yielded a TGI [1] greater than 100 µM, a TGI [2] greater than 100 µM and a TGI [3] greater than 100 µM. The TGI [4] was greater than 100 µM, the TGI [5] was greater than 100 µM and the TGI [6] was greater than 100 µM. The TGI [7] was greater than 100 µM, the TGI [8] was greater than 100 µM and the TGI [9] was greater than 100 µM. The TGI [10] was greater than 100 µM, the TGI [11] was greater than 100 µM and the TGI [12] was greater than 100 µM. It also gave a TGI [13] greater than 100 µM, a TGI [14] greater than 100 µM and a TGI [15] greater than 100 µM. The TGI [16] was greater than 100 µM, the TGI [17] was greater than 100 µM and the TGI [18] was greater than 100 µM. For the same compound, the TGI [19] was greater than 100 µM, the TGI [20] was greater than 100 µM and the TGI [21] was greater than 100 µM. It also gave a TGI [22] greater than 100 µM, a TGI [23] greater than 100 µM and a TGI [24] greater than 100 µM. It also gave a TGI [25] greater than 100 µM, a TGI [26] greater than 100 µM and a TGI [27] greater than 100 µM. The TGI [28] was greater than 100 µM, the TGI [29] was greater than 100 µM and the TGI [30] was greater than 100 µM. The TGI [31] was greater than 100 µM, the TGI [32] was greater than 100 µM and the TGI [33] was greater than 100 µM. The TGI [34] was greater than 100 µM, the TGI [35] was greater than 100 µM and the TGI [36] was greater than 100 µM. For the same compound, the TGI [37] was greater than 100 µM, the TGI [38] was greater than 100 µM and the TGI [39] was greater than 100 µM. It also gave a TGI [40] greater than 100 µM, a TGI [41] greater than 100 µM and a TGI [42] greater than 100 µM. It also gave a TGI [43] greater than 100 µM, a TGI [44] greater than 100 µM and a TGI [45] greater than 100 µM. The TGI [46] was greater than 100 µM, the TGI [47] was greater than 100 µM and the TGI [48] was greater than 100 µM. For the same compound, the TGI [49] was greater than 100 µM, the TGI [50] was greater than 100 µM and the TGI [51] was greater than 100 µM. It also gave a TGI [52] greater than 100 µM, a TGI [53] greater than 100 µM and a TGI [54] greater than 100 µM. The TGI [55] was greater than 100 µM.
Work on `COc1ccccc1/C=N/Nc1nnc2c3ccccc3c3ncccc3c2n1` yielded a TGI [1] of 52.8 µM, a TGI [2] greater than 100 µM and a TGI [3] greater than 100 µM. It also gave a TGI [4] greater than 100 µM, a TGI [5] greater than 100 µM and a TGI [6] greater than 100 µM. It also gave a TGI [7] greater than 100 µM, a TGI [8] greater than 100 µM and a TGI [9] greater than 100 µM. For the same compound, the TGI [10] was greater than 100 µM, the TGI [56] was greater than 100 µM and the TGI [11] was greater than 100 µM. For the same compound, the TGI [12] was greater than 100 µM, the TGI [13] was greater than 100 µM and the TGI [14] was greater than 100 µM. It also gave a TGI [15] greater than 100 µM, a TGI [16] greater than 100 µM and a TGI [17] greater than 100 µM. It also gave a TGI [18] greater than 100 µM, a TGI [19] greater than 100 µM and a TGI [20] of 31.8 µM. For the same compound, the TGI [21] was greater than 100 µM, the TGI [22] was 49.2 µM and the TGI [23] was greater than 100 µM. It also gave a TGI [24] of 78 µM, a TGI [25] greater than 100 µM and a TGI [26] greater than 100 µM. For the same compound, the TGI [28] was greater than 100 µM, the TGI [29] was greater than 100 µM and the TGI [30] was 90.6 µM. The TGI [31] was greater than 100 µM, the TGI [32] was greater than 100 µM and the TGI [33] was greater than 100 µM. It also gave a TGI [34] greater than 100 µM, a TGI [35] greater than 100 µM and a TGI [36] greater than 100 µM. The TGI [57] was 76 µM, the TGI [37] was greater than 100 µM and the TGI [38] was greater than 100 µM. It also gave a TGI [39] greater than 100 µM, a TGI [40] greater than 100 µM and a TGI [41] greater than 100 µM. For the same compound, the TGI [42] was greater than 100 µM, the TGI [43] was greater than 100 µM and the TGI [44] was greater than 100 µM. For the same compound, the TGI [45] was greater than 100 µM, the TGI [46] was greater than 100 µM and the TGI [47] was greater than 100 µM. The TGI [48] was 55.6 µM, the TGI [49] was greater than 100 µM and the TGI [50] was greater than 100 µM. For the same compound, the TGI [51] was 49.3 µM, the TGI [52] was 60.1 µM and the TGI [53] was greater than 100 µM. The TGI [58] was greater than 100 µM, the TGI [54] was greater than 100 µM and the TGI [55] was greater than 100 µM.

— PubChem BioAssay (NCI)
